Measured values published in patent US7045502B2, “Use of melagatran for the manufacture of a medicament for the treatment of Type 1 diabetes mellitus” (AstraZeneca AB, priority 2002, dated 2006).
Entries after “also recorded” stand apart in the source; their conditions may differ.

Experiments:
[1] = system: human islets in ABO-compatible blood (IBMIR); assay: Tubing loop model: human islets perfused with fresh ABO-compatible human blood (IBMIR); type: cell-based
Description: (§1) Pancreases were obtained from cadaver donors after consent was obtained either from the organ donor registry or from relatives. The organs were obtained from three female and two male normoglycemic donors (aged 59–85 years, three with blood group 0 and two with blood group A). The islets were isolated at the Division for Clinical Immunology at the University of Uppsala using a modification of previously described semiautomated digestion-filtration methods (Brandhorst et al, Cell Transplant., 7, 489 (1998) and Ricordi et al, Diabetes, 37, 413 (1988)). This isolation procedure was followed by further purification on a continuous density gradient in a refrigerated COBE 2991 centrifuge (COBE Blood Component Technology, Lakewood, Colo., USA). The islets were placed in untreated culture flasks and maintained in suspension culture at 37° C. (5% CO2) for. 1 to 5 days. The culture medium (CMRL 1066; ICN Biomedicals, Costa Mesa, Calif.) was changed every other day. The volume and purity of the islets were determined by microscopic sizing on a grid after staining with diphenylthiocarbazone. The purity of the islet preparations used in this study ranged from 40% and 95% (70±6.3%) (amount of endocrine compared to exocrine/duct tissue in the preparation; mean ±SD). Viability was assessed in terms of insulin secretion in response to a glucose challenge in a dynamic perfusion system (in 1.67 mmol/L glucose, then in 16.7 mmol/L, and finally back to 1.67 mmol/L).
All materials that came in contact with whole blood were furnished with a Corline heparin surface (Corline, Uppsala, Sweden) according to the manufacturer's recommendation (see J. Clin. Immunol., 16, 222 (1996)). The surface concentration of heparin was 0.5 μg/cm^2, corresponding to approximately 0.1 U/cm^2, with an antithrombin binding capacity of 2–4 pmol/cm^2.
Fresh human blood, obtained from healthy volunteers who had received no medication for at least 14 days, was collected in surface-heparinized 60-mL syringes (18 gauge, Microlance; Becton Dickinson, Franklin Lakes, N.J.). The cannulae of the syringes were connected to surface-heparinized-silicon tubing. During sampling, the syringes were rotated continuously.
(§2) A modification of the model previously described was used (see Bennet et al, Diabetes, 48, 1907 (1999), Gong et al, J. Clin. Immunol., 16, 222 (1996) and Larsson et al, Immunophamnacology, 38, 119 (1997)). This device consisted of loops made of PVC (diameter, 6.3 mm; length, 390 mm) whose inner surface was furnished with immobilized heparin. The tubing was held together with a specially designed heparinized connector. A circular loop was formed when the ends of the connector were tightly pushed into the lumen of the tubing ends. A rocking apparatus, placed in a 37° C. incubator, was used to generate blood flow inside the loops. The loops were rocked at a setting that prevented the blood from coming into contact with the connectors. Up to twelve devices could be rocked at the same time. Ten 60-min islet experiments were performed, with islets isolated from five different donors. Melagatran (Astraeneca R&D Mölndal, Sweden), dissolved in 5 mM citrate buffer containing 0.15 M NaCl, pH 5.5, was tested at 0, 0.4 μM, 1 μM, 4 μM, and 10 μM. For each experiment, two loops of fresh human blood without islets, one containing CMRL 1066 (GibcoRBL, USA) and one containing 10 μM melagatran, were included as controls. Fresh ABO-compatible human blood from the same donor (5 mL) was added to each loop. The loops were placed on the rocking device for a 10-min preincubation with melagatran or citrate buffer. Thereafter, the loops were opened, and 150 μL of CMRL 1066, with or without 4 μL of islets (approximately 4,000 IEQ), was added to the loops, followed by another 60-min incubation on the rocking device at 37° C. Blood glucose levels were measured with a glucometer (Glucometer Elite; Bayer Diagnostics, Leverkusen, Germany) before the perfusion. […]

human islets [2] = assay: Islet perfusion system (islet function, insulin secretion); type: cell-based; details: 10 μM melagatran
Description: as §1, with “The purity of the islet preparations used in this study ranged from 40% and 95% (70±6.3%) (amount of endocrine compared to exocrine/duct tissue in the preparation; mean ±SD).” left out, “mmol/L). […]” for “mmol/L).”

human islets [3] = assay: Immunohistochemical staining of human islets after perfusion in the tubing loop model; type: cell-based; details: 10 μM melagatran
Description: as §2, with “perfusion. After every perfusion the loop contents were filtered through 70 μm-diameter filters (Filcons, Cuptype; DAKO, Denmark). Both macroscopic blood clots and tissue recovered on the filters were frozen in liquid nitrogen for immunohistochemical staining. For immunohistochemical comparison, non-perfused islets were also frozen and stained by the same procedure.” for “perfusion.”

complement system = assay: Activation of complement in serum in wells of microtiter plates; type: biochemical; details: human serum, no islets, 0 to 10 μM, 30 min, 37° C.
Procedure: The direct effect of melagatran on the complement system was studied using a method in which serum was incubated in the wells of microtiter plates (Nilsson et al, Mol. Immunol., 30, 211 (1993)). Serum (100 μL) was added to each well of a 96-well microtiter plate together with melagatran at a final concentration of 0, 0.4, 1, 4, or 10 μM. After a 30-min incubation at 37° C., the serum was transferred to tubes containing EDTA (final concentration, 10 mM). These samples were stored at −70° C. before analysis of the complement fragment C3a (see below). In order to detect bound C3 fragments, the wells of the microtiter plates were washed with PBS containing 0.05% (v/v) TWEEN 20 and incubated with 100 μL of horseradish peroxidase (HRP)-conjugated anti-C3c (DAKO. AS, Glostrup, Denmark) for 60 min at 37° C. The binding of antibody was detected by the addition of 1,2-phenylendiamine dihydrochloride (Fluka, Switzerland), and the staining was monitored at 492 nm.
EDTA-plasma was analyzed as previously described (Nilsson Ekdahl et al, Scand. J. Immunol., 35, 85 (1992)). Monoclonal antibody 4SD17.3 was used as capture antibody. Bound C3a was detected with biotinylated polyclonal anti-C3a followed by HRP-conjugated streptavidin (Amersham, Buckinghamshire, UK). Zymosan-activated serum, calibrated against a solution of purified C3a, served as a standard, and the values are given as ng/mL.

[4] = islets, 10 μM melagatran, 60 min perifusion with ABO-compatible blood, mean ± SEM, n=10
[5] = islets, 10 μM melagatran, 60 min perifusion with ABO-compatible blood, plasma, mean ± SEM, n=10

Compound: N=C(N)c1ccc(CNC(=O)[C@@H]2CCN2C(=O)[C@H](NCC(=O)O)C2CCCCC2)cc1 [melagatran, HOOC—CH2—(R)Cgl-Aze-Pab-H]
- FXIa-AT versus medium control ([1]; 4 μM melagatran, FIG. 1B): decreased to nearly the same level as the medium control
- TAT versus medium control ([1]; 4 μM melagatran, FIG. 1B): decreased to nearly the same level as the medium control
- Cell consumption and cascade system activation ([1]; 0.4 to 10 μM, 60 min): diminished cell consumption and cascade system activation in a dose-dependent manner
- Release of β-TG ([1]; at ≧4 μM, FIG. 1A): normalized
- Inhibition of prothrombin fragment 1+2 formation ([1]; compared with 4 μM needed for TAT and FXIa-AT, FIG. 1B): required higher doses
- Inhibition of IBMIR (overall) ([1]; in vitro): almost completely inhibits IBMIR; also recorded: abrogated IBMIR
- Granulocytes [1, 4]: 3.7 ± 0.3 ×10^9/L
- Lymphocytes [1, 4]: 2.0 ± 0.1 ×10^9/L
- Monocytes [1, 4]: 0.6 ± 0.1 ×10^9/L
- Platelets [1, 4]: 170 ± 8.2 ×10^9/L
- C3a [1, 5]: 510 ± 50 ng/mL
- FXIa-AT [1, 5]: 0.9 ± 0.6 µmol/L
- Insulin [1, 5]: 1500 ± 350 mU/L
- Prothrombin F1 + 2 [1, 5]: 110 ± 28 nmol/L
- TAT [1, 5]: 890 ± 160 µg/L
- sC5b-9 [1, 5]: 140 ± 17.0 AU/mL
- β-TG [1, 5]: 1300 ± 200 IU/mL
- Complement activation product C3a ([1]; tubing loop with islets, 0 to 10 μM, FIG. 2): inhibited
- Concentration at which an effect on most parameters was already observed ([1]; tubing loop, 60 min): 0.4 µM
- Concentration at which cell counts were fully restored ([1]; tubing loop, 60 min, FIGS. 1A, 1C): ≥ 4 µM
- Insulin release on perfusion of islets (human islets [2]): did not induce insulin release
- Subsequent glucose stimulation of islets (human islets [2]; glucose 16.7 mmol/L): normal
- Clot formation around islets (human islets [3]; 60 min perfusion with fresh human blood): no signs of clot formation
- CD11b+ cells penetrated into the islets (human islets [3]; 60 min perfusion, anti-CD11b staining): only a few
- CD41+ platelets surrounding the islet surface (human islets [3]; 60 min perfusion, anti-CD41a staining): almost no
- Binding of C3 fragments to the polystyrene surface (complement system): no effect
- Generation of C3a (complement system): no effect
